Here are results for eleven molecules from US12054486B2, “Pyridine derivatives and their use as sodium channel activators” (Xenon Pharmaceuticals Inc., priority 2021, dated 2024).

pEC50: −log10 of the molar value.

In general, pEC50 refers to −log10 of the EC50, conventionally taken in molar units.

The target of this test is sodium channel isoforms of interest stably expressed in Human Embryonic Kidney Cells (voltage-gated sodium channel, particularly NaV1.1) (Homo sapiens, UniProt P35498). Briefly: automated planar patch clamp assay of sodium channel gating (area under the sodium current trace). Type of test: cell-based. To be noted: HEK cells, voltage step from −120 mV to 0 mV, increasing concentrations. From the text: A typical assay described in Crestey, F. et al., ACS Chem Neurosci (2015), Vol. 6, pp. 1302-1308, AA43279 (Frederiksen, K. et al., Eur J Neurosci (2017), Vol. 46, pp. 1887-1896) and Lu AE98134 (von Schoubyea, N. L. et al., Neurosci Lett (2018), Vol. 662, pp. 29-35) employs the use of automated planar patch clamp techniques to study the effects of the chemical agent on the gating of sodium channels. The sodium channel isoforms of interest are stably expressed in Human Embryonic Kidney Cells and the currents that flow through those channels in response to a depolarizing voltage clamp step from −120 mV to 0 mV are measured in the presence of increasing concentrations of the chemical agents. The area under the sodium current trace which correlates to the magnitude of sodium flux through the cell membrane is used to quantify the effects on gating of the channels. Other parameters that are measured in the assay include the peak current, time constant of open state inactivation and the voltage dependence of steady state inactivation properties. The concentration responses are used to determine potency of each chemical agents effects on modulating the sodium channel isoform gating. Such techniques are known to those skilled in the art, and may be developed, using current technologies, into low or medium throughput assays for evaluating compounds for their ability to modulate sodium channel behaviour.
As disclosed above, typical assays for testing compounds of the disclosure are known, for example as disclosed in Crestey, F. et al., ACS Chem Neurosci (2015), Vol. 6, pp. 1302-1308, AA43279 (Frederiksen, K. et al., Eur J Neurosci (2017), Vol. 46, pp. 1887-1896) and Lu AE98134 (von Schoubyea, N. L. et al., Neurosci Lett (2018), Vol. 662, pp. 29-35) which employs the use of automated planar patch clamp techniques to study the effects of the chemical agent on the gating of sodium channels. The sodium channel isoforms of interest are stably expressed in Human Embryonic Kidney Cells and the currents that flow through those channels in response to a depolarizing voltage clamp step from −120 mV to 0 mV are measured in the presence of increasing concentrations of the chemical agents. The area under the sodium current trace which correlates to the magnitude of sodium flux through the cell membrane is used to quantify the effects on gating of the channels. Other parameters that are measured in the assay include the peak current, time constant of open state inactivation and the voltage dependence of steady state inactivation properties. The concentration responses are used to determine potency of each chemical agents effects on modulating the sodium channel isoform gating.
Background: Patch clamp records ionic current or voltage across a cell membrane.
As to `Cc1ccccc1-c1ccnc(N2CCOCC2)c1-c1nc2ccccc2[nH]1` [Example 8, 4-(3-(1H-benzo[d]imidazol-2-yl)-4-(o-tolyl)pyridin-2-yl)morpholine], the negative logarithm of the EC50 (pEC50) is 4.30 to 5.00 and the “Empirical Emax” value was “+++ (+++ indicates a value from 5.0 up to 7.5 μM)”.

In the case of `CC1CN=C(c2c(-c3ccccc3)ccnc2N2CC[C@H](F)C2)N1` (stereo partly drawn) [Example 26, 2-((S)-3-fluoropyrrolidin-1-yl)-3-(5-methyl-4,5-dihydro-1H-imidazol-2-yl)-4-phenylpyridine], the pEC50 was 5.00 to 6.00 and the “Empirical Emax” value is “+ (+ indicates a value less than 2.0 μM)”.

As for `CC(C)N1CCc2nc(-c3c(-c4ccccc4)ccnc3N3CC[C@H](F)C3)[nH]c2C1` [Example 38, (S)-2-(2-(3-fluoropyrrolidin-1-yl)-4-phenylpyridin-3-yl)-5-isopropyl-4,5,6,7-tetrahydro-3H-imidazo[4,5-c]pyridine], the pEC50 is no more than 4.30 and the “Empirical Emax” value was “+ (+ indicates a value less than 2.0 μM)”.

Turning to `CC(C)CCc1nnc(-c2c(-c3ccccc3O)ccnc2N2CC[C@H](F)C2)o1` [Example 13, (S)-2-(2-(3-fluoropyrrolidin-1-yl)-3-(5-isopentyl-1,3,4-oxadiazol-2-yl)pyridin-4-yl)phenol], the negative-log EC50 (pEC50) was no more than 4.30 and the “Empirical Emax” value is listed as “+ (+ indicates a value less than 2.0 μM)”.

Take `Cc1[nH]c(-c2c(-c3ccccc3)ccnc2N2CC[C@H](F)C2)nc1Br` [Example 27, (S)-3-(4-bromo-5-methyl-1H-imidazol-2-yl)-2-(3-fluoropyrrolidin-1-yl)-4-phenylpyridine]: the pEC50 is 5.00 to 6.00 and the “Empirical Emax” value is “++ (++ indicates a value from 2.0 up to 5.0 μM)”.

For `FC(F)(F)C1CCN(c2nccc(-c3ccccc3)c2-c2nc3c([nH]2)COCC3)C1` (stereo not shown) [Example 47, 2-(4-phenyl-2-(3-(trifluoromethyl)pyrrolidin-1-yl)pyridin-3-yl)-3,4,6,7-tetrahydropyrano[3,4-d]imidazole], the pEC50 was 5.00 to 6.00 and the “Empirical Emax” value was “+++ (+++ indicates a value from 5.0 up to 7.5 μM)”.

With `CC1(C)OCCc2nc(-c3c(-c4ccccc4)ccnc3N3CCC(F)(F)C3)[nH]c21` [Example 54, 2-(2-(3,3-difluoropyrrolidin-1-yl)-4-phenylpyridin-3-yl)-4,4-dimethyl-3,4,6,7-tetrahydropyrano[3,4-d]imidazole], the negative logarithm of the EC50 (pEC50) was 5.00 to 6.00 and the “Empirical Emax” value is listed as “+++ (+++ indicates a value from 5.0 up to 7.5 μM)”.

In the case of `Nc1nnc(-c2c(-c3ccccc3F)ccnc2N2CCCC2)o1` [Example 4, 5-(4-(2-fluorophenyl)-2-(pyrrolidin-1-yl)pyridin-3-yl)-1,3,4-oxadiazol-2-amine], the pEC50 was no more than 4.30 and the “Empirical Emax” value was “+++ (+++ indicates a value from 5.0 up to 7.5 μM)”.

Take `Fc1ccccc1-c1ccnc(N2CCC(F)(F)C2)c1-c1nc2ccncc2[nH]1` [Example 78, 2-[2-(3,3-difluoropyrrolidin-1-yl)-4-(2-fluorophenyl)-3-pyridyl]-1H-imidazo[4,5-c]pyridine]: the pEC50 is greater than 6.00 and the “Empirical Emax” value is given as “++++ (++++ indicates a value greater than 7.5)”.

For the molecule `F[C@@H]1CN(c2nccc(-c3ccccc3)c2-c2nc3c([nH]2)COCC3)C[C@@H]1F` [Example 48, 2-(2-((3S,4R)-3,4-difluoropyrrolidin-1-yl)-4-phenylpyridin-3-yl)-3,4,6,7-tetrahydropyrano[3,4-d]imidazole], the negative-log EC50 (pEC50) was 5.00 to 6.00 and the “Empirical Emax” value is “+++ (+++ indicates a value from 5.0 up to 7.5 μM)”.

Regarding `Fc1cccnc1-c1ccnc(N2CCCC2)c1-c1nc2ccccc2[nH]1` [Example 15, 2-(3-fluoro-2′-(pyrrolidin-1-yl)-[2,4′-bipyridin]-3′-yl)-1H-benzo[d]imidazole], the pEC50 was 4.30 to 5.00 and the “Empirical Emax” value was “++++ (++++ indicates a value greater than 7.5)”.
